The test system of data set [1] is HeLa cells. The data set can be described thus: Cell Titer Glo cytotoxicity / cell viability assay in HeLa cells (CC50). The conditions noted are these: any concentration tested. It is filed as cell-based, human. The source says:
A dose-response analysis may be performed using the ELISA assay and conditions described above. The conditions for the dose-response ELISA are analogous to those described above. A series of, e.g., seven different concentrations may be analyzed. In parallel, a dose-response cytotoxicity assay may be performed using Cell Titer Glo (Promega) under the same conditions as the ELISA to ensure that the inhibition of VEGF expression was not due to the cytotoxicity.
Experimental Design. HeLa (human cervical carcinoma) cell cultures were established under normoxic conditions (21% oxygen). HeLa cells increase VEGF production 4- to 5-fold in response to hypoxia. […] At the completion of treatment, the conditioned media were collected and the VEGF protein levels were assayed in an enzyme-linked immunosorbent assay (ELISA) with primary antibodies that recognize the soluble VEGF121 and VEGF165 isoforms (R & D Systems, Minneapolis, Minn., USA). To ensure that decreases in VEGF concentration were not due to cytotoxicity, cultures were assayed using a standard assay ([…]-GLO® Luminescent Cell Viability Assay; Promega, Madison, Wis., USA) that measures total cellular adenosine triphosphate (ATP) concentrations as an indicator of cell viability.

Data set [2] concerns soluble VEGF121 and VEGF165 isoforms. The experiment in a line: ELISA of soluble VEGF production in nontransformed keratinocytes during hypoxia or normoxia. Format: cell-based, human. The conditions noted are these: 72 hours. Here is the method:
(§1) Experimental Design. Nontransformed normal human keratinocyte cell cultures were established under normoxic conditions (21% oxygen). […] At the completion of treatment, cells were assessed for viability with an ATP assay and conditioned media were evaluated for VEGF protein levels by ELISA (as described in Section 9.1.1.1).

For data set [3], the system named is normal human keratinocyte. The experiment in a line: ATP viability assay in keratinocytes. It is filed as cell-based. The note with it: any concentration tested. Here is the method: as §1
Data set [4] concerns HT1080 xenografts. The experiment in a line: HT1080 xenograft dose response: tumor growth. Format: in vivo, athymic nude mice. The note with it: 18 days. The protocol: Experimental Study Design. HT1080 cells (5×10^6 cells/mouse) were implanted subcutaneously in male athymic nude mice.
Tumor size was measured using calipers at periodic intervals during the study (data shown in Section 9.2.2). […] The study was ended after 18 days, when the vehicle treated tumors reached a mean volume of ˜1755 mm^3. […] Mice were sacrificed, and excised tumors were homogenized in buffer containing protease inhibitors. Both terminal intratumoral and pathologic plasma human VEGF levels were measured using an ELISA that recognizes human VEGF121 and VEGF165 (as described in Section 9.1.1.1). Intratumoral VEGF levels were normalized to the total tumor protein concentration, while pathologic plasma human VEGF levels were expressed in pg/mL of plasma.
Experimental Design. The experimental design was reported in Section 9.1.2.2.

Data set [5] in a line: Trough plasma concentrations of Compound #10 in HT1080 xenograft mice (HPLC-MS/MS). It is filed as in vivo. The conditions noted are these: athymic nude, mouse, oral, 1 mg/kg BID.
The test system of data set [6] is SKNEP orthotopic xenografts. The experiment in a line: Orthotopic SKNEP Ewing sarcoma tumor model (kidney capsule): tumor weight. Format: in vivo, athymic nude mice. The note with it: 5 weeks of treatment. The source says: Experimental Design. In orthotopic tumor models, human tumor cells are implanted into the mouse in an organ that corresponds to the location from which the tumors arise. Such models may provide a better predictor of clinical efficacy than injection of tumors into the flanks of nude mice. See Hoffman, Invest. New Drugs 1999, 17(4):343-59. SY5Y neuroblastoma or SKNEP Ewing sarcoma tumor cells (1×10^6 cells/mouse) were implanted into the kidney capsule of female athymic nude mice according to published methods. See Huang et al., Proc. Natl. Acad. Sci. USA 2003, 100(13):7785-90. One week after implantation of each type of tumor, mice were divided into 2 groups and were administered a test Compound as shown in Table 21.
After 5 weeks of treatment, the mice were sacrificed, and the weights of the tumors were assessed.

Data set [7] deals with HT1080 cells. The experiment in a line: Anchorage-independent colony formation in HT1080 cells. Format: cell-based, human. The note with it: 10 and 50 nM, day 18; P=0.29 and 0.07. The protocol: Experimental Design. HT1080 cells growing in monolayer were trypsinized, counted and suspended in a 0.35% agar noble/1× complete DMEM solution at 37° C. at a concentration of 2,500 cells/mL. One ml of this solution was layered over a semisolid base consisting of 0.5 mL of 0.75% agar noble/1× complete DMEM in a six well tissue culture plate. […] Tissue culture plates were then returned to the incubator and colonies were allowed to form. […] On day 18 the vehicle-treated wells had colonies of sufficient size to count (>50 cells/colony). At this time, for increased visualization, 1.5 mL of a 2× working volume of (3-(4,5-Dimethylthiazol-2-yl)-2,5-diphenyltetrazolium bromide, a tetrazole) (MTT, Invitrogen, Cat #C35007) was added and the plates were returned to the incubator for 2 hours until colonies were stained by conversion of the MTT to purple formazan crystals. Colonies were then visually counted under a dissecting microscope.

The nature of data set [8]: Respiratory safety pharmacology in awake telemeterized dogs. Format: in vivo, beagle dogs. The note with it: single oral doses of 30, 60, and 120 mg/kg, male dogs.
A short description of data set [9]: Oral pharmacokinetics in mice. It is filed as in vivo. The protocol:
The pharmacokinetic evaluations in mice were adjuncts to the primary pharmacodynamic xenograft studies. The evaluations in rats included toxicokinetic assessments in single-dose, 7-day, and 28-day toxicology studies as well as a mass-balance study after a single oral dose of ^14C-Compound #10. The evaluations in dogs included toxicokinetic assessments in 7-day and 28-day toxicology studies. In the studies performed, rodents were dosed once daily with Compound #10 formulated in vehicle and administered via oral gavage.

Data set [10] addresses T1, CYP3A4 (Homo sapiens, UniProt P08684).
T1 construct: host or cells: human hepatic microsomes or recombinant isoenzyme (not distinguished)
The experiment in a line: CYP inhibition: CYP3A4. It is filed as in vitro ADME. The conditions noted are these: human hepatic microsomes or recombinant isoenzymes. The source says: It is possible that in certain clinical trial subjects, such agents may need to be adjusted for dosing or replaced by alternative agents that are not metabolized by CYP2D6, particularly when such agents may have a low therapeutic index.

The subject of data set [11] is Chinese hamster ovary (CHO) cells. The experiment in a line: Chromosome aberration study in CHO cells. Format: cell-based. The conditions noted are these: with and without metabolic activation. Here is the method: (§2) Genotoxicity was assessed in a battery of in vitro and in vivo studies that included a bacterial reverse mutation study, a chromosome aberration study in Chinese hamster ovary (CHO) cells, and a micronucleus study in rats by the oral route. The in vitro studies were performed in the presence and absence of an exogenous metabolic activation system.

Data set [12] can be described thus: Micronucleus study in rats by the oral route. Format: in vivo. Here is the method: as §2

The record followed here is patent US20120157401A1, “METHODS FOR TREATING NEUROFIBROMATOSIS” (PTC Therapeutics, Inc., priority 2009, published 2012).

“And” between values parts separate entries of the source, which are not always exact repeats. Equal values may be shown once. Read-outs that look alike come from different tables or passages of the source.

T1 sequence (P08684 whole entry): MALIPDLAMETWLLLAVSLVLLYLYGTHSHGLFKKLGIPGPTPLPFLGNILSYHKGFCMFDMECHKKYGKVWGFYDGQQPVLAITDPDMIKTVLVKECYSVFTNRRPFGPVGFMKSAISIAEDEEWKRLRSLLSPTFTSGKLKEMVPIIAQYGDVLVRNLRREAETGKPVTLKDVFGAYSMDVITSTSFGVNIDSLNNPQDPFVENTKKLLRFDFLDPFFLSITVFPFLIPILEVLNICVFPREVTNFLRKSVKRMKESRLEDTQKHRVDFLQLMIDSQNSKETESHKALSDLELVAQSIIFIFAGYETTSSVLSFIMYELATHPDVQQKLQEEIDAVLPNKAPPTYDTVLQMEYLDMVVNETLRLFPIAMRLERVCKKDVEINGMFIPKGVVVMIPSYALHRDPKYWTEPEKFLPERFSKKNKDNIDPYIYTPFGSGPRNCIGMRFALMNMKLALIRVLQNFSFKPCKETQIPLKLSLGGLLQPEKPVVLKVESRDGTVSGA

As to `COc1ccc(C2c3[nH]c4ccc(Cl)cc4c3CCN2C(=O)Oc2ccc(Cl)cc2)cc1` (racemic) [Compound #10], the “Cytotoxicity (cellular ATP)” value in data set [1] was “No cytotoxicity was observed”. Further, in data set [2] (hypoxic (1% oxygen)), the “Maximal decrease in VEGF concentration in conditioned media” value was found to be 57% and the “Mean VEGF concentration in conditioned media at maximal decrease” value is reported as 606 pg/mL. Moreover, in [2] (normoxic), the “Decrease in VEGF concentration in conditioned media” value stood at 21% and the “Mean VEGF concentration in conditioned media in the presence of compound” value was determined as 192 pg/mL. Also, the “Toxicity (ATP viability)” value in data set [3] is on record as “No toxicity was observed”. For the same compound, the “Toxicity on observing the animals” value in data set [4] (HT1080 xenograft mice) was “no overt toxicity”. Moreover, in data set [4] (HT1080 xenografts), the “Dose levels at which maximum antitumor activity was observed” value is given as not below 1 mg/kg BID. In data set [5] (16 hours after the first day of dosing (n=3), read-out: Mean trough plasma concentration), the concentration at 16 h was 130 ng/mL and 280 nM. In addition, in data set [5] (16 hours after the last dose on Day 18 (n=4), read-out: Steady state mean trough plasma concentration), the concentration at 16 h was determined as 820 ng/mL. In addition, the “Growth of orthotopic SKNEP tumors (tumor weight)” value in data set [6] is reported as “completely prevented growth”. Moreover, the “Number of anchorage-independent colonies formed” value in data set [7] was “modest trend toward a reduced number of colonies”. The “Changes in respiratory rate, core body temperature, arterial blood gases, arterial pH, or arterial bicarbonate” value in data set [8] was “no dose dependent or biologically significant changes”. For the same compound, the Oral bioavailability entry in data set [9] is “orally bioavailable”. Moreover, the concentration at 24 h in data set [9] (mouse, plasma, oral, 1-mg/kg dose level, Day 1, read-out: Plasma trough concentration at 24 hours) is 100 to 150 ng/mL. Moreover, the “Inhibition of CYP3A4” value in data set [10] is on record as “No meaningful inhibition”. The “Genotoxic effects, chromosome aberration in CHO cells” value in [11] is “no evidence of genotoxic effects”. The “Genotoxic effects, micronucleus in rats” value in data set [12] was “no evidence of genotoxic effects”.
